target: recombinant Human Phosphodiesterase B2 (PDE4B2) (Homo sapiens, UniProt Q07343); assay: Human Phosphodiesterase B2 Radiometric Assay; type: biochemical; details: 0.1 μg/mL recombinant PDE4B2; preincubated at 30 C for 30 min; [3H]cyclic AMP 8 nM, stopped after 20 min; yttrium silicate SPA beads; read-out: PDE4B2 pIC50 (converted)
Outline: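 SPA read-out: product 5′AMP binds yttrium silicate beads (added with 18 mM ZnSO4 after 20 min) in preference to [3H]cAMP substrate, given at 8 nM final.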

Chain of recombinant Human Phosphodiesterase B2 (PDE4B2) (Q07343 1-564 isoform Q07343-2): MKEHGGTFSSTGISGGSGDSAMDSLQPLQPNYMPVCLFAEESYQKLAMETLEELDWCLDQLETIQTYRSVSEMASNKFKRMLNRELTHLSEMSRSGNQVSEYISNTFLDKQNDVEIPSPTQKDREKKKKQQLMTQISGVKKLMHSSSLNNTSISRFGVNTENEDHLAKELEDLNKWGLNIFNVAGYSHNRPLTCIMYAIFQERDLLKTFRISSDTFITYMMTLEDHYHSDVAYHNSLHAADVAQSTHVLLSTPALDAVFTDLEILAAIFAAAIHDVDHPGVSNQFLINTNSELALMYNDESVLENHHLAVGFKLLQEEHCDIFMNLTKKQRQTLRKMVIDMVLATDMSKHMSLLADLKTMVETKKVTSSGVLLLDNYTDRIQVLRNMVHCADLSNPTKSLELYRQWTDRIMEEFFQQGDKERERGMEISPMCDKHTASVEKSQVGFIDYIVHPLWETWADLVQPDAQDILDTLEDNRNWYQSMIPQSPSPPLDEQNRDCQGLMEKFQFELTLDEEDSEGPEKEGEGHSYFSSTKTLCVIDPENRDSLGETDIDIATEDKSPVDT

| SMILES | IC50 [pM] |
| --- | --- |
| C[C@@H]1CN(Cc2ccc(-c3cccc(Oc4ncc(F)cc4C(=O)N[C@H]4CC[C@@H](NC(=O)c5cn6cc(F)ccc6n5)CC4)c3)cc2)C[C@H](C)N1 [Example 67, N-((1s,4s)-4-(2-(4′-(((3S,5R)-3,5-dimethylpiperazin-1-yl)methyl)biphenyl-3-yloxy)-5-fluoronicotinamido)cyclohexyl)-6-fluoroimidazo[1,2-a]pyridine-2-carboxamide] | 100 |
| Cc1nc(C(=O)N[C@H]2CC[C@@H](NC(=O)c3cc(F)cnc3Oc3cccc(-c4ccc(O)c(CN5C[C@@H](C)N[C@@H](C)C5)c4)c3)CC2)cs1 [Example 68, N-((1s,4s)-4-(2-(3′-(((3R,5S)-3,5-dimethylpiperazin-1-yl)methyl)-4′-hydroxybiphenyl-3-yloxy)-5-fluoronicotinamido)cyclohexyl)-2-methylthiazole-4-carboxamide] | 25.1 |
| Cc1nc(C(=O)N[C@H]2CC[C@@H](NC(=O)c3cc(F)cnc3Oc3cccc(-c4cccc(CN5C[C@@H](C)N[C@@H](C)C5)c4O)c3)CC2)cs1 [Example 69, N-((1s,4s)-4-(2-(3′-(((3R,5S)-3,5-dimethylpiperazin-1-yl)methyl)-2′-hydroxybiphenyl-3-yloxy)-5-fluoronicotinamido)cyclohexyl)-2-methylthiazole-4-carboxamide] | 398 |
| C[C@@H]1CN(Cc2ccc(-c3cccc(Oc4ncc(F)cc4C(=O)N[C@H]4CC[C@@H](NC(=O)c5csc(CO)n5)CC4)c3)cc2)C[C@H](C)N1 [Example 70, N-((1s,4s)-4-(2-(4′-(((3S,5R)-3,5-dimethylpiperazin-1-yl)methyl)biphenyl-3-yloxy)-5-fluoronicotinamido)cyclohexyl)-2-(hydroxymethyl)thiazole-4-carboxamide] | 79.4 |
| C[C@@H]1CN(Cc2ccc(-c3cccc(Oc4ncc(F)cc4C(=O)N[C@H]4CC[C@@H](NC(=O)c5cc6ccccn6n5)CC4)c3)cc2)C[C@H](C)N1 [Example 71, N-((1s,4s)-4-(2-(4′-(((3S,5R)-3,5-dimethylpiperazin-1-yl)methyl)biphenyl-3-yloxy)-5-fluoronicotinamido)cyclohexyl)pyrazolo[1,5-a]pyridine-2-carboxamide] | 25.1 |
| Cc1cc(C(=O)N[C@H]2CC[C@@H](NC(=O)c3cc(F)cnc3Oc3cccc(-c4cccc(CN5C[C@@H](C)N[C@@H](C)C5)c4)c3)CC2)nn1C [Example 72, N-((1s,4s)-4-(1,5-dimethyl-1H-pyrazole-3-carboxamido)cyclohexyl)-2-(3′-(((3S,5R)-3,5-dimethylpiperazin-1-yl)methyl)biphenyl-3-yloxy)-5-fluoronicotinamide] | 63.1 |
| Cc1nc(C(=O)N[C@H]2CC[C@@H](NC(=O)c3cc(F)cnc3Oc3cccc(-c4ccc(CCCN5CCCC5)cc4)c3)CC2)cs1 [Example 73, N-((1s,4s)-4-(5-fluoro-2-(4′-(3-(pyrrolidin-1-yl)propyl)biphenyl-3-yloxy)nicotinamido)cyclohexyl)-2-methylthiazole-4-carboxamide] | 63.1 |
| Cc1nc(C(=O)N[C@H]2CC[C@@H](NC(=O)c3cc(F)cnc3Oc3cccc(-c4ccc(CCCN5CCNCC5)cc4)c3)CC2)cs1 [Example 74, N-((1s,4s)-4-(5-fluoro-2-(4′-(3-(piperazin-1-yl)propyl)biphenyl-3-yloxy)nicotinamido)cyclohexyl)-2-methylthiazole-4-carboxamide] | 25.1 |
| Cc1nc(C(=O)N[C@H]2CC[C@@H](NC(=O)c3cc(F)cnc3Oc3cccc(-c4ccc(CCCN5C[C@@H](C)N[C@@H](C)C5)cc4)c3)CC2)cs1 [Example 75, N-((1s,4s)-4-(2-(4′-(3-((3S,5R)-3,5-dimethylpiperazin-1-yl)propyl)biphenyl-3-yloxy)-5-fluoronicotinamido)cyclohexyl)-2-methylthiazole-4-carboxamide] | 31.6 |
| CCc1nc(C(=O)N[C@H]2CC[C@@H](NC(=O)c3cc(F)cnc3Oc3cccc(-c4ccc(CN5C[C@@H](C)N[C@@H](C)C5)cc4)c3)CC2)cs1 [Example 76, N-((1s,4s)-4-(2-(4′-(((3S,5R)-3,5-dimethylpiperazin-1-yl)methyl)biphenyl-3-yloxy)-5-fluoronicotinamido)cyclohexyl)-2-ethylthiazole-4-carboxamide] | 63.1 |
| Cc1cc(C(=O)N[C@H]2CC[C@@H](NC(=O)c3cc(F)cnc3Oc3cccc(-c4ccc(O)c(CN5CCN(C(C)C)CC5)c4)c3)CC2)nn1C [Example 77, N-((1s,4s)-4-(1,5-dimethyl-1H-pyrazole-3-carboxamido)cyclohexyl)-5-fluoro-2-(4′-hydroxy-3′-((4-isopropylpiperazin-1-yl)methyl)biphenyl-3-yloxy)nicotinamide] | 63.1 |
| Cc1cc(C(=O)N[C@H]2CC[C@@H](NC(=O)c3cc(F)cnc3Oc3cccc(-c4cccc(CN5C[C@@H](C)N[C@@H](C)C5)c4O)c3)CC2)nn1C [Example 78, N-((1s,4s)-4-(1,5-dimethyl-1H-pyrazole-3-carboxamido)cyclohexyl)-2-(3′-(((3R,5S)-3,5-dimethylpiperazin-1-yl)methyl)-2′-hydroxybiphenyl-3-yloxy)-5-fluoronicotinamide] | 79.4 |
| Cc1cc(C(=O)N[C@H]2CC[C@@H](NC(=O)c3cc(F)cnc3Oc3cccc(-c4ccc(CCCN5CCCC5)cc4)c3)CC2)nn1C [Example 79, N-((1s,4s)-4-(1,5-dimethyl-1H-pyrazole-3-carboxamido)cyclohexyl)-5-fluoro-2-(4′-(3-(pyrrolidin-1-yl)propyl)biphenyl-3-yloxy)nicotinamide] | 31.6 |
| Cc1cc(C(=O)N[C@H]2CC[C@@H](NC(=O)c3cc(F)cnc3Oc3cccc(-c4ccc(CCCN5CCN(C)CC5)cc4)c3)CC2)nn1C [Example 80, N-((1s,4s)-4-(1,5-dimethyl-1H-pyrazole-3-carboxamido)cyclohexyl)-5-fluoro-2-(4′-(3-(4-methylpiperazin-1-yl)propyl)biphenyl-3-yloxy)nicotinamide] | 39.8 |
| Cc1cc(C(=O)N[C@H]2CC[C@@H](NC(=O)c3cc(F)cnc3Oc3cccc(-c4ccc(CCCN5C[C@@H](C)N[C@@H](C)C5)cc4)c3)CC2)nn1C [Example 81, N-((1s,4s)-4-(1,5-dimethyl-1H-pyrazole-3-carboxamido)cyclohexyl)-2-(4′-(3-((3S,5R)-3,5-dimethylpiperazin-1-yl)propyl)biphenyl-3-yloxy)-5-fluoronicotinamide] | 31.6 |
| Cc1cc(C(=O)N[C@H]2CC[C@@H](NC(=O)c3cc(F)cnc3Oc3cccc(-c4ccc(CCN5C[C@@H](C)N[C@@H](C)C5)cc4)c3)CC2)nn1C [Example 82, N-((1s,4s)-4-(1,5-dimethyl-1H-pyrazole-3-carboxamido)cyclohexyl)-2-(4′-(2-((3S,5R)-3,5-dimethylpiperazin-1-yl)ethyl)biphenyl-3-yloxy)-5-fluoronicotinamide] | 20 |
| Cc1cc(C(=O)N[C@H]2CC[C@@H](NC(=O)c3cc(F)cnc3Oc3cccc(-c4ccc(CCN5CCN(C(C)C)CC5)cc4)c3)CC2)nn1C [Example 83, N-((1s,4s)-4-(1,5-dimethyl-1H-pyrazole-3-carboxamido)cyclohexyl)-5-fluoro-2-(4′-(2-(4-isopropylpiperazin-1-yl)ethyl)biphenyl-3-yloxy)nicotinamide] | 25.1 |
| C[C@@H]1CN(Cc2cc(-c3cccc(Oc4ncc(F)cc4C(=O)N[C@H]4CC[C@@H](NC(=O)c5cn6cc(F)ccc6n5)CC4)c3)ccc2O)C[C@H](C)N1 [Example 84, N-((1s,4s)-4-(2-(3′-(((3S,5R)-3,5-dimethylpiperazin-1-yl)methyl)-4′-hydroxybiphenyl-3-yloxy)-5-fluoronicotinamido)cyclohexyl)-6-fluoroimidazo[1,2-a]pyridine-2-carboxamide] | 158 |
| Cc1cccc2nc(C(=O)N[C@H]3CC[C@@H](NC(=O)c4cc(F)cnc4Oc4cccc(-c5ccc(O)c(CN6C[C@@H](C)N[C@@H](C)C6)c5)c4)CC3)cn12 [Example 85, N-((1s,4s)-4-(2-(3′-(((3S,5R)-3,5-dimethylpiperazin-1-yl)methyl)-4′-hydroxybiphenyl-3-yloxy)-5-fluoronicotinamido)cyclohexyl)-5-methylimidazo[1,2-a]pyridine-2-carboxamide] | 63.1 |
| Cc1nc(C(=O)N[C@H]2CC[C@@H](NC(=O)c3cc(F)cnc3Oc3cccc(-c4ccc(CCN5C[C@@H](C)N[C@@H](C)C5)cc4)c3)CC2)cs1 [Example 86, N-((1s,4s)-4-(2-(4′-(2-((3S,5R)-3,5-dimethylpiperazin-1-yl)ethyl)biphenyl-3-yloxy)-5-fluoronicotinamido)cyclohexyl)-2-methylthiazole-4-carboxamide] | 31.6 |
| Cc1nc(C(=O)N[C@H]2CC[C@@H](NC(=O)c3cc(F)cnc3Oc3cccc(-c4ccc(CCN5CCCN(C)CC5)cc4)c3)CC2)cs1 [Example 87, N-((1s,4s)-4-(5-fluoro-2-(4′-(2-(4-methyl-1,4-diazepan-1-yl)ethyl)biphenyl-3-yloxy)nicotinamido)cyclohexyl)-2-methylthiazole-4-carboxamide] | 25.1 |
| Cc1csc(C(=O)N[C@H]2CC[C@@H](NC(=O)c3cc(F)cnc3Oc3cccc(-c4ccc(O)c(CN5C[C@@H](C)N[C@@H](C)C5)c4)c3)CC2)n1 [Example 88, N-((1s,4s)-4-(2-(3′-(((3S,5R)-3,5-dimethylpiperazin-1-yl)methyl)-4′-hydroxybiphenyl-3-yloxy)-5-fluoronicotinamido)cyclohexyl)-4-methylthiazole-2-carboxamide] | 31.6 |
| Cc1cccc(C(=O)N[C@H]2CC[C@@H](NC(=O)c3cc(F)cnc3Oc3cccc(-c4ccc(O)c(CN5C[C@@H](C)N[C@@H](C)C5)c4)c3)CC2)n1 [Example 89, N-((1s,4s)-4-(2-(3′-(((3S,5R)-3,5-dimethylpiperazin-1-yl)methyl)-4′-hydroxybiphenyl-3-yloxy)-5-fluoronicotinamido)cyclohexyl)-6-methylpicolinamide] | 79.4 |

From US8273774B2, “Phenoxypyridinylamide compounds” (AstraZeneca AB, priority 2008, dated 2012)
